Laboratory results taken from ChEMBL document CHEMBL1201862, “PubChem BioAssay data set” (2004).
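Five compound concentrations were applied to cells in 96-well plates for 48 hours; endpoints were derived by simple linear interpolation of the resulting dose-response curve. GI50 marks 50% less growth.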 Calls of active or inactive are those of the source. No stated cut-off is given here; in the data, active = GI50 up to about 1.1 µM and inactive = higher.

Legend:
Assay in all cases: DTP human tumour cell line panel, 48 h
HCT-15 = system: HCT-15
EKVX = system: EKVX
NCI-H460 = system: NCI-H460
HL-60 = system: HL-60
NCI/ADR-RES = system: NCI/ADR-RES
HT-29 = system: HT-29
SF-268 = system: SF-268
Hs-578T = system: Hs-578T
DU-145 = system: DU-145
A498 = system: A498
PC-3 = system: PC-3
OVCAR-3 = system: OVCAR-3
A549 = system: A549
SF-539 = system: SF-539
SK-MEL-5 = system: SK-MEL-5
CCRF-CEM = system: CCRF-CEM
MDA-MB-435 = system: MDA-MB-435
SK-MEL-28 = system: SK-MEL-28
U-251 = system: U-251

Row | SMILES | GI50 (HCT-15) [µM] | GI50 (EKVX) | GI50 (NCI-H460) | GI50 (HL-60) | GI50 (NCI/ADR-RES) | GI50 (HT-29) | GI50 (SF-268) | GI50 (Hs-578T) | GI50 (DU-145) | GI50 (A498) | GI50 (PC-3) | GI50 (OVCAR-3) | GI50 (A549) | GI50 (SF-539) | GI50 (SK-MEL-5) | GI50 (CCRF-CEM) | GI50 (MDA-MB-435) | GI50 (SK-MEL-28) | GI50 (U-251)
1 | COC(=O)c1c(O)ccc2c1c1c(n2Cc2ccc(Cl)cc2Cl)C(=O)c2ccccc2C1=O | 5.56 | 10.4 µM (inactive) | 3.27 µM (inactive) | 13.8 µM (inactive) | 10.7 µM (inactive) | 17.6 µM (inactive) | 10.1 µM (inactive) | 9.62 µM (inactive) | 11.6 µM (inactive) | 18.1 µM (inactive) | 7.74 µM (inactive) | 6.37 µM (inactive) | 5.62 µM (inactive) | 14.4 µM (inactive) | 13.7 µM (inactive) | 4.12 µM (inactive) | 7.91 µM (inactive) | 16.2 µM (inactive) | 10.8 µM (inactive)
2 | CC1=C2c3ccccc3N(S(=O)(=O)c3ccccc3)[C@H]2[C@H](C(=O)N2C3CC4CC[C@@]3(CS2(=O)=O)C4(C)C)CC1 (some centres not stated) | 5.36 | 56.6 µM (inactive) | 5.48 µM (inactive) | 0.641 µM (active) | 35.9 µM (inactive) | 17.6 µM (inactive) | 17.9 µM (inactive) | 0.627 µM (active) | > 100 µM (inactive) | 87.9 µM (inactive) | 8.67 µM (inactive) | 17 µM (inactive) | 35.3 µM (inactive) | 0.415 µM (active) | 22.8 µM (inactive) | 35.3 µM (inactive) | 56.5 µM (inactive) | > 100 µM (inactive) | 6.59 µM (inactive)
3 | CCOC(=O)Cn1nnc2ccc(Nc3nc4ccccc4nc3C(=O)OCC)cc21 | > 100 | > 100 µM (inactive) | > 100 µM (inactive) | > 100 µM (inactive) | > 100 µM (inactive) | > 100 µM (inactive) | 27.2 µM (inactive) | 33.5 µM (inactive) | 74.1 µM (inactive) | > 100 µM (inactive) | > 100 µM (inactive) | > 100 µM (inactive) | > 100 µM (inactive) | 31.3 µM (inactive) | > 100 µM (inactive) | > 100 µM (inactive) | > 100 µM (inactive) | > 100 µM (inactive) | 74 µM (inactive)
4 | O=C(O)CCSCc1ccccc1 | > 100 | > 100 µM (inactive) | > 100 µM (inactive) | > 100 µM (inactive) | > 100 µM (inactive) | > 100 µM (inactive) | > 100 µM (inactive) | > 100 µM (inactive) | > 100 µM (inactive) | > 100 µM (inactive) | > 100 µM (inactive) | > 100 µM (inactive) | > 100 µM (inactive) | > 100 µM (inactive) | > 100 µM (inactive) | > 100 µM (inactive) | > 100 µM (inactive) | > 100 µM (inactive) | > 100 µM (inactive)
5 | COc1ccc(/N=C2\C(=O)C3=C(OC(C)(C)CC3)c3ccccc32)cc1 | 1.05 | 0.993 µM (active) | 1.5 µM (inactive) | 0.592 µM (active) | 0.802 µM (active) | 0.741 µM (active) | 1.8 µM (inactive) | 1.63 µM (inactive) | 0.871 µM (active) | 7.91 µM (inactive) | 1.29 µM (inactive) | 0.361 µM (active) | 0.946 µM (active) | 0.005 µM (active) | 0.838 µM (active) | 1.48 µM (inactive) | 0.264 µM (active) | 1.14 µM (inactive) | 0.841 µM (active)
6 | NC(=O)C(c1ccccc1)N1OC2C(=O)N(Cc3ccccc3)C(=O)C2C1c1cccc(Oc2ccc(Cl)cc2)c1 (configuration not stated) | 30.4 | 27.1 µM (inactive) | 28.8 µM (inactive) | 23.4 µM (inactive) | 34 µM (inactive) | 18.2 µM (inactive) | 35.8 µM (inactive) | 49.1 µM (inactive) | 33.1 µM (inactive) | 52.1 µM (inactive) | 33.4 µM (inactive) | 19.9 µM (inactive) | 31.4 µM (inactive) | 18.7 µM (inactive) | 15.9 µM (inactive) | 36.1 µM (inactive) | 27 µM (inactive) | 79.3 µM (inactive) | 28.2 µM (inactive)
7 | Cn1c(=O)c2c(nc(-n3nc(-c4ccc(Cl)cc4)cc3N)n2C)n(C)c1=O | > 100 | > 100 µM (inactive) | > 100 µM (inactive) | > 100 µM (inactive) | 39.6 µM (inactive) | > 100 µM (inactive) | 9.91 µM (inactive) | 22.4 µM (inactive) | > 100 µM (inactive) | > 100 µM (inactive) | > 100 µM (inactive) | > 100 µM (inactive) | > 100 µM (inactive) | 17.3 µM (inactive) | 6.37 µM (inactive) | > 100 µM (inactive) | > 100 µM (inactive) | > 100 µM (inactive) | > 100 µM (inactive)
8 | CCN(CC)/[N+]([O-])=N/OCOC(C)=O | > 100 | > 100 µM (inactive) | > 100 µM (inactive) | 65.9 µM (inactive) | > 100 µM (inactive) | > 100 µM (inactive) | > 100 µM (inactive) | > 100 µM (inactive) | > 100 µM (inactive) | > 100 µM (inactive) | > 100 µM (inactive) | > 100 µM (inactive) | > 100 µM (inactive) | > 100 µM (inactive) | > 100 µM (inactive) | 94.4 µM (inactive) | > 100 µM (inactive) | > 100 µM (inactive) | > 100 µM (inactive)
